Results: patent US20250326748A1, “COMPOUNDS AND METHODS FOR MODULATING SPLICING” (REMIX THERAPEUTICS INC., priority 2022, published 2025)
Read-outs that look alike come from different tables or passages of the source.

Key:
Target C mRNA = assay: Splicing RT-qPCR panel, Target C canonical junction (CJ) mRNA; assay type: cell-based, human; settings: read-out: Target C CJ (decrease in CJ mRNA levels, IC50)
Outline: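 A673 cells (DMEM, 10% FBS) or K562 cells (IMDM, 10% FBS) treated 24 h at 37 °C with an 11-point 3-fold dilution, top 10 uM, DMSO ≤0.25%. Canonical-junction mRNA quantified in lysates by RT-qPCR, normalised to GAPDH, GUSB or PPIA and to DMSO (2^−ΔΔCt), then converted to % response.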

MYB mRNA = assay: Splicing RT-qPCR assay, MYB canonical (CJ) and alternative (AJ) junction mRNA; assay type: cell-based, human; settings: for IC50: canonical junction mRNA; for AC50: alternative junction mRNA, read-out: MYB AJ (AC50, increase in AJ mRNA)
Outline: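 Splicing switches are scored by TaqMan qPCR on cell lysate, comparing abundance of the normal exon junction with the new junction formed when the alternative exon is included. A673 results are referenced to PPIA and K562 results to GAPDH or GUSB. Compound exposure lasts 24 h.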

[1] = Homo sapiens, qPCR panel, read-out: MYB CJ (decrease in CJ mRNA levels, IC50)
[2] = Homo sapiens, RT-qPCR, A673 or K562 cells, 24 hours treatment
[3] = Homo sapiens, RT-qPCR, A673 or K562 cells, 24 hours treatment, read-out: MYB CJ (IC50, decrease in CJ mRNA)

Cn1cc2cc(-c3cnc4cc(N5CC[C@H](NC6CC6)C5)ccc4n3)c(O)c(F)c2n1 [Compound 176, 5-[6-[(3S)-3-(cyclopropylamino)318quinoxaline-1-yl]318quinoxaline-2-yl]-7-fluoro-2-methyl-indazol-6-ol] was tested, and the IC50 (Target C mRNA; Homo sapiens) was 100 to 1000 nM, the IC50 (MYB mRNA; [1]) was < 100 nM and the AC50 (MYB mRNA; [2]) was < 100 nM. For the same compound, the IC50 (MYB mRNA; [3]) was < 100 nM.
Cn1cc2cc(-c3cnc4nc(N5CCC(NC6CC6)C5)ccc4n3)c(O)c(F)c2n1 (stereo not drawn) [Compound 178, 5-[6-[3-(cyclopropylamino)pyrrolidin-1-yl]pyrido[2,3-b]pyrazin-2-yl]-7-fluoro-2-methyl-indazol-6-ol] was tested, and the IC50 (Target C mRNA; Homo sapiens) was 100 to 1000 nM, the IC50 (MYB mRNA; [1]) was < 100 nM and the AC50 (MYB mRNA; [2]) was 100 to 1000 nM. For the same compound, the IC50 (MYB mRNA; [3]) was < 100 nM.
For CNC1CCN(c2cnc3nc(-c4cc5cn(C)nc5c(C)c4O)cc(Cl)c3n2)C1 (stereo not drawn) [Compound 193, 5-{8-chloro-2-[3-(methylamino)355pyrrolidine-1-yl]pyrido[2,3-b]pyrazin-6-yl}-2,7-dimethylindazol-6-ol], the IC50 (Target C mRNA; Homo sapiens) was 100 to 1000 nM, the IC50 (MYB mRNA; [1]) was < 100 nM and the AC50 (MYB mRNA; [2]) was < 100 nM. For the same compound, the IC50 (MYB mRNA; [3]) was < 100 nM.
With Cc1c(O)c(-c2ccc3nc(N4CCC(N(C)C)CC4)cnc3n2)cc2cn(C)nc12 [Compound 198] the IC50 (Target C mRNA; Homo sapiens) was 100 to 1000 nM, the IC50 (MYB mRNA; [1]) was < 100 nM and the AC50 (MYB mRNA; [2]) was 100 to 1000 nM. It also gave an IC50 (MYB mRNA; [3]) of 100 to 1000 nM.
With CN[C@@H]1CCN(c2cnc3nc(-c4cc(F)c5nc(C)cn5c4)ncc3c2)C1 [Compound 202, (3R)-1-(2-{8-fluoro-2-methylimidazo[1,2-a]pyridin-6-yl}pyrido[2,3-d]pyrimidin-6-yl)-N-methylpyrrolidin-3-amine] the IC50 (Target C mRNA; Homo sapiens) was 100 to 1000 nM, the IC50 (MYB mRNA; [1]) was < 100 nM and the AC50 (MYB mRNA; [2]) was 100 to 1000 nM. For the same compound, the IC50 (MYB mRNA; [3]) was < 100 nM.
In the case of CNC1CCN(c2cnc3nc(-c4cc5cn(C)nc5c(C)c4O)ccc3n2)C1 (stereo not drawn) [Compound 192, 2,7-dimethyl-5-{2-[3-(methylamino)337pyrrolidine-1-yl]pyrido[2,3-b]pyrazin-6-yl}indazol-6-ol], the IC50 (Target C mRNA; Homo sapiens) is reported as 100 to 1000 nM, the IC50 (MYB mRNA; [1]) is reported as 100 to 1000 nM and the AC50 (MYB mRNA; [2]) is reported as 100 to 1000 nM. For the same compound, the IC50 (MYB mRNA; [3]) was 100 to 1000 nM.
For CN[C@H]1CCN(c2cnc3nc(-c4cc5cn(C)nc5c(C)c4O)nc(OC)c3c2)C1 [Compound 212, 5-{4-methoxy-6-[(3S)-3-(methylamino)pyrrolidin-1-yl]pyrido[2,3-d]pyrimidin-2-yl}-2,7-dimethylindazol-6-ol], the IC50 (Target C mRNA; Homo sapiens) was 1000 to 10000 nM, the IC50 (MYB mRNA; [1]) was < 100 nM and the AC50 (MYB mRNA; [2]) was < 100 nM. For the same compound, the IC50 (MYB mRNA; [3]) was < 100 nM.
Work on Cn1cc2cc(-c3ccc4cc(N5CC[C@H](NC(C)(C)C)C5)cnc4n3)c(O)cc2n1 (single isomer, unassigned) [Compound 200] yielded an IC50 (Target C mRNA; Homo sapiens) of 1000 to 10000 nM, an IC50 (MYB mRNA; [1]) of 100 to 1000 nM and an AC50 (MYB mRNA; [2]) of 100 to 1000 nM. The IC50 (MYB mRNA; [3]) was 100 to 1000 nM.
Cc1c(O)c(-c2cc(Cl)c3cc(N4C[C@@H](C)N[C@@H](C)C4)cnc3n2)cc2cn(C)nc12 [Compound 207, 5-{4-chloro-6-[(3R,5S)-3,5-dimethylpiperazin-1-yl]-1,8-naphthyridin-2-yl}-2,7-dimethylindazol-6-ol] was tested, and the IC50 (Target C mRNA) was 100 to 1000 nM, the AC50 (MYB mRNA; RT-qPCR, A673 or K562 cells, 24 hours treatment) was < 100 nM and the IC50 (MYB mRNA; RT-qPCR, A673 or K562 cells, 24 hours treatment, read-out: MYB CJ (IC50, decrease in CJ mRNA)) was < 100 nM. The IC50 (MYB mRNA; qPCR panel, read-out: MYB CJ (decrease in CJ mRNA levels, IC50)) was < 100 nM.
